± gives the expanded uncertainty stated by the source.
Assay: xn = mol fraction of the nth substance listed
Details: Liquid, Vibrating tube method

CCCCCCCCCCCCC [tridecane] + O=C=O
mass density (323.16 K, 14000 kPa, x2 = 0.2526): 751.2 ± 0.3 kg/m3 | mass density (323.16 K, 14000 kPa, x2 = 0.7549): 788.1 ± 0.3 kg/m3 | mass density (323.16 K, 15000 kPa, x2 = 0.0955): 748.5 ± 0.4 kg/m3 | mass density (323.16 K, 15000 kPa, x2 = 0.2526): 752.1 ± 0.4 kg/m3 | mass density (323.16 K, 15000 kPa, x2 = 0.7549): 791.5 ± 0.3 kg/m3 | mass density (323.16 K, 16000 kPa, x2 = 0.0955): 749.2 ± 0.4 kg/m3 | mass density (323.16 K, 16000 kPa, x2 = 0.2526): 752.9 ± 0.4 kg/m3 | mass density (323.16 K, 16000 kPa, x2 = 0.7549): 794.6 ± 0.3 kg/m3 | mass density (323.16 K, 17000 kPa, x2 = 0.0955): 750 ± 0.4 kg/m3 | mass density (323.16 K, 17000 kPa, x2 = 0.2526): 753.7 ± 0.4 kg/m3 | mass density (323.16 K, 17000 kPa, x2 = 0.7549): 798.1 ± 0.3 kg/m3 | mass density (323.16 K, 18000 kPa, x2 = 0.0955): 750.7 ± 0.4 kg/m3 | mass density (323.16 K, 18000 kPa, x2 = 0.2526): 754.4 ± 0.4 kg/m3 | mass density (323.16 K, 18000 kPa, x2 = 0.7549): 801.2 ± 0.3 kg/m3 | mass density (323.16 K, 19000 kPa, x2 = 0.0955): 751.4 ± 0.4 kg/m3 | mass density (323.16 K, 19000 kPa, x2 = 0.2526): 755.2 ± 0.4 kg/m3 | mass density (323.16 K, 19000 kPa, x2 = 0.7549): 804.1 ± 0.3 kg/m3 | mass density (323.16 K, 20000 kPa, x2 = 0.0955): 752.1 ± 0.4 kg/m3 | mass density (323.16 K, 20000 kPa, x2 = 0.2526): 755.9 ± 0.4 kg/m3 | mass density (323.16 K, 20000 kPa, x2 = 0.7549): 807 ± 0.3 kg/m3 | mass density (323.16 K, 21000 kPa, x2 = 0.0955): 752.8 ± 0.4 kg/m3 | mass density (323.16 K, 21000 kPa, x2 = 0.2526): 756.6 ± 0.4 kg/m3 | mass density (323.16 K, 21000 kPa, x2 = 0.7549): 809.5 ± 0.3 kg/m3 | mass density (323.16 K, 22000 kPa, x2 = 0.0955): 753.4 ± 0.4 kg/m3 | mass density (323.16 K, 22000 kPa, x2 = 0.2526): 757.3 ± 0.4 kg/m3 | mass density (323.16 K, 22000 kPa, x2 = 0.7549): 812.4 ± 0.3 kg/m3 | mass density (323.16 K, 23000 kPa, x2 = 0.0955): 754.1 ± 0.4 kg/m3 | mass density (323.16 K, 23000 kPa, x2 = 0.2526): 758 ± 0.4 kg/m3 | mass density (323.16 K, 23000 kPa, x2 = 0.7549): 815 ± 0.3 kg/m3 | mass density (323.16 K, 24000 kPa, x2 = 0.0955): 754.7 ± 0.4 kg/m3 | mass density (323.16 K, 24000 kPa, x2 = 0.2526): 758.7 ± 0.4 kg/m3 | mass density (323.16 K, 24000 kPa, x2 = 0.7549): 817.5 ± 0.3 kg/m3 | mass density (323.16 K, 25000 kPa, x2 = 0.0955): 755.3 ± 0.4 kg/m3 | mass density (323.16 K, 25000 kPa, x2 = 0.2526): 759.3 ± 0.4 kg/m3 | mass density (323.19 K, 8000 kPa, x2 = 0.5259): 758.8 ± 0.3 kg/m3 | mass density (323.19 K, 9000 kPa, x2 = 0.5259): 760.1 ± 0.3 kg/m3 | mass density (323.19 K, 10000 kPa, x2 = 0.5259): 761.4 ± 0.3 kg/m3 | mass density (323.19 K, 11000 kPa, x2 = 0.5259): 762.6 ± 0.3 kg/m3 | mass density (323.19 K, 12000 kPa, x2 = 0.5259): 763.8 ± 0.3 kg/m3 | mass density (323.19 K, 13000 kPa, x2 = 0.5259): 764.9 ± 0.3 kg/m3 | mass density (323.19 K, 14000 kPa, x2 = 0.5259): 766 ± 0.3 kg/m3 | mass density (323.19 K, 15000 kPa, x2 = 0.5259): 767.2 ± 0.3 kg/m3 | mass density (323.19 K, 16000 kPa, x2 = 0.5259): 768.2 ± 0.3 kg/m3 | mass density (323.19 K, 17000 kPa, x2 = 0.5259): 769.3 ± 0.3 kg/m3 | mass density (323.19 K, 18000 kPa, x2 = 0.5259): 770.4 ± 0.3 kg/m3 | mass density (323.19 K, 19000 kPa, x2 = 0.5259): 771.4 ± 0.4 kg/m3 | mass density (323.19 K, 20000 kPa, x2 = 0.5259): 772.4 ± 0.4 kg/m3 | mass density (323.19 K, 21000 kPa, x2 = 0.5259): 773.3 ± 0.4 kg/m3 | mass density (323.19 K, 22000 kPa, x2 = 0.5259): 774.3 ± 0.4 kg/m3 | mass density (323.19 K, 23000 kPa, x2 = 0.5259): 775.3 ± 0.4 kg/m3 | mass density (323.19 K, 24000 kPa, x2 = 0.5259): 776.2 ± 0.4 kg/m3 | mass density (323.19 K, 25000 kPa, x2 = 0.5259): 777 ± 0.4 kg/m3 | mass density (333.14 K, 13000 kPa, x2 = 0.8978): 737.1 ± 0.4 kg/m3 | mass density (333.14 K, 14000 kPa, x2 = 0.8978): 745.4 ± 0.4 kg/m3 | mass density (333.14 K, 15000 kPa, x2 = 0.8978): 754 ± 0.4 kg/m3 | mass density (333.14 K, 16000 kPa, x2 = 0.8978): 761.2 ± 0.4 kg/m3 | mass density (333.14 K, 17000 kPa, x2 = 0.8978): 767.9 ± 0.4 kg/m3 | mass density (333.14 K, 18000 kPa, x2 = 0.8978): 774.1 ± 0.4 kg/m3 | mass density (333.14 K, 19000 kPa, x2 = 0.8978): 779.5 ± 0.4 kg/m3 | mass density (333.14 K, 20000 kPa, x2 = 0.8978): 784.8 ± 0.4 kg/m3 | mass density (333.14 K, 21000 kPa, x2 = 0.8978): 789.8 ± 0.4 kg/m3 | mass density (333.14 K, 22000 kPa, x2 = 0.8978): 794.7 ± 0.4 kg/m3 | mass density (333.14 K, 23000 kPa, x2 = 0.8978): 799.2 ± 0.4 kg/m3 | mass density (333.14 K, 24000 kPa, x2 = 0.8978): 803.5 ± 0.4 kg/m3 | mass density (333.14 K, 25000 kPa, x2 = 0.8978): 807.8 ± 0.4 kg/m3 | mass density (333.16 K, 8000 kPa, x2 = 0.5259): 749 ± 0.3 kg/m3 | mass density (333.16 K, 9000 kPa, x2 = 0.5259): 750.4 ± 0.3 kg/m3 | mass density (333.16 K, 10000 kPa, x2 = 0.5259): 751.7 ± 0.3 kg/m3 | mass density (333.16 K, 11000 kPa, x2 = 0.5259): 753 ± 0.3 kg/m3 | mass density (333.16 K, 12000 kPa, x2 = 0.5259): 754.2 ± 0.3 kg/m3 | mass density (333.16 K, 13000 kPa, x2 = 0.5259): 755.5 ± 0.3 kg/m3 | mass density (333.16 K, 14000 kPa, x2 = 0.5259): 756.7 ± 0.3 kg/m3 | mass density (333.16 K, 15000 kPa, x2 = 0.5259): 757.9 ± 0.3 kg/m3 | mass density (333.16 K, 16000 kPa, x2 = 0.5259): 759 ± 0.3 kg/m3 | mass density (333.16 K, 17000 kPa, x2 = 0.5259): 760.2 ± 0.3 kg/m3 | mass density (333.16 K, 18000 kPa, x2 = 0.5259): 761.3 ± 0.4 kg/m3 | mass density (333.16 K, 19000 kPa, x2 = 0.5259): 762.4 ± 0.4 kg/m3 | mass density (333.16 K, 20000 kPa, x2 = 0.5259): 763.4 ± 0.4 kg/m3 | mass density (333.16 K, 21000 kPa, x2 = 0.5259): 764.5 ± 0.4 kg/m3 | mass density (333.16 K, 22000 kPa, x2 = 0.5259): 765.5 ± 0.4 kg/m3 | mass density (333.16 K, 23000 kPa, x2 = 0.5259): 766.5 ± 0.4 kg/m3 | mass density (333.16 K, 24000 kPa, x2 = 0.5259): 767.5 ± 0.4 kg/m3 | mass density (333.16 K, 25000 kPa, x2 = 0.5259): 768.5 ± 0.4 kg/m3 | mass density (333.28 K, 12000 kPa, x2 = 0.7549): 762.3 ± 0.3 kg/m3 | mass density (333.28 K, 13000 kPa, x2 = 0.7549): 766.5 ± 0.3 kg/m3 | mass density (333.28 K, 14000 kPa, x2 = 0.7549): 769.6 ± 0.3 kg/m3 | mass density (333.28 K, 15000 kPa, x2 = 0.7549): 772.6 ± 0.3 kg/m3 | mass density (333.28 K, 16000 kPa, x2 = 0.7549): 775.6 ± 0.3 kg/m3 | mass density (333.28 K, 17000 kPa, x2 = 0.7549): 778.6 ± 0.3 kg/m3 | mass density (333.28 K, 18000 kPa, x2 = 0.7549): 781.5 ± 0.3 kg/m3 | mass density (333.28 K, 19000 kPa, x2 = 0.7549): 784.5 ± 0.3 kg/m3 | mass density (333.28 K, 20000 kPa, x2 = 0.7549): 787.4 ± 0.4 kg/m3 | mass density (333.28 K, 21000 kPa, x2 = 0.7549): 790.4 ± 0.4 kg/m3 | mass density (333.28 K, 22000 kPa, x2 = 0.7549): 793.1 ± 0.4 kg/m3 | mass density (333.28 K, 23000 kPa, x2 = 0.7549): 795.7 ± 0.4 kg/m3 | mass density (333.28 K, 24000 kPa, x2 = 0.7549): 798.4 ± 0.4 kg/m3 | mass density (333.28 K, 25000 kPa, x2 = 0.7549): 800.8 ± 0.4 kg/m3 | mass density (333.3 K, 9000 kPa, x2 = 0.0955): 736.6 ± 0.3 kg/m3 | mass density (333.3 K, 9000 kPa, x2 = 0.2526): 739.5 ± 0.3 kg/m3 | mass density (333.3 K, 10000 kPa, x2 = 0.0955): 737.4 ± 0.3 kg/m3 | mass density (333.3 K, 10000 kPa, x2 = 0.2526): 740.4 ± 0.3 kg/m3 | mass density (333.3 K, 11000 kPa, x2 = 0.0955): 738.3 ± 0.3 kg/m3 | mass density (333.3 K, 11000 kPa, x2 = 0.2526): 741.4 ± 0.3 kg/m3 | mass density (333.3 K, 12000 kPa, x2 = 0.0955): 739.1 ± 0.4 kg/m3 | mass density (333.3 K, 12000 kPa, x2 = 0.2526): 742.3 ± 0.3 kg/m3 | mass density (333.3 K, 13000 kPa, x2 = 0.0955): 739.9 ± 0.4 kg/m3 | mass density (333.3 K, 13000 kPa, x2 = 0.2526): 743.1 ± 0.3 kg/m3 | mass density (333.3 K, 14000 kPa, x2 = 0.0955): 740.8 ± 0.4 kg/m3 | mass density (333.3 K, 14000 kPa, x2 = 0.2526): 744 ± 0.4 kg/m3 | mass density (333.3 K, 15000 kPa, x2 = 0.0955): 741.6 ± 0.4 kg/m3 | mass density (333.3 K, 15000 kPa, x2 = 0.2526): 744.9 ± 0.4 kg/m3 | mass density (333.3 K, 16000 kPa, x2 = 0.0955): 742.3 ± 0.4 kg/m3 | mass density (333.3 K, 16000 kPa, x2 = 0.2526): 745.7 ± 0.4 kg/m3 | mass density (333.3 K, 17000 kPa, x2 = 0.0955): 743.1 ± 0.4 kg/m3
